Test results reported in ChEMBL document CHEMBL3046513, “Synthesis, characterization, and biological evaluation of some N-aryl hydrazones and their 2,3-disubstituted-4-thiazolidinone derivatives” (Med Chem Res, 2013).
In brackets after ≈: the same amount, converted by molar mass. Activity calls are given as the source filed them. No cut-off for these calls is given here.

Experiments:
Format in all cases: functional
Bacillus cereus = test: Antibacterial activity against Bacillus cereus assessed as growth inhibition by serial plate dilution method
Staphylococcus aureus = test: Antibacterial activity against Staphylococcus aureus ATCC 25923 assessed as growth inhibition by serial plate dilution method
Escherichia coli = test: Antibacterial activity against Escherichia coli ATCC 25922 assessed as growth inhibition by serial plate dilution method
Pseudomonas aeruginosa = test: Antibacterial activity against Pseudomonas aeruginosa ATCC 27853 assessed as growth inhibition by serial plate dilution method
Candida albicans = test: Antifungal activity against Candida albicans assessed as growth inhibition by serial plate dilution method
Mus musculus [1] = test: Analgesic activity in Mus musculus […] albino (mouse) assessed as time taken to tail withdrawl at 100 mg/kg, po administered through intragastric tube after 120 min by tail flick test (reference value: 1.363 +/- 0.1297 secs)
Rattus norvegicus [2] = test: Anti-inflammatory activity in Rattus norvegicus (rat) assessed as decrease in carrageenan-induced paw edema at 100 mg/kg, po administered 30 min prior to carrageenan challenge measured after 180 min (reference value: 2.275 +/- 0.1181 mm)
Rattus norvegicus [3] = test: Anti-inflammatory activity in Rattus norvegicus (rat) assessed as decrease in carrageenan-induced paw edema at 100 mg/kg, po administered 30 min prior to carrageenan challenge measured after 60 min (reference value: 2.175 +/- 0.1797 mm)
[4] = system: Radical scavenging activity; test: Antioxidant activity assessed as inhibition of DPPH radical generation at 400 ug/mL after 20 min by spectrophotometric analysis relative to control
Mus musculus [5] = test: Analgesic activity in Mus musculus […] albino (mouse) assessed as time taken to tail withdrawl at 100 mg/kg, po administered through intragastric tube after 180 min by tail flick test (reference value: 1.363 +/- 0.1297 secs)
[6] = system: Radical scavenging activity; test: Antioxidant activity assessed as inhibition of DPPH radical generation at 200 ug/mL after 20 min by spectrophotometric analysis relative to control
Rattus norvegicus [7] = test: Anti-inflammatory activity in Rattus norvegicus (rat) assessed as decrease in carrageenan-induced paw edema at 100 mg/kg, po administered 30 min prior to carrageenan challenge measured after 120 min (reference value: 2.375 +/- 0.1436 mm)
Mus musculus [8] = test: Analgesic activity in Mus musculus […] albino (mouse) assessed as time taken to tail withdrawl at 100 mg/kg, po administered through intragastric tube after 60 min by tail flick test (reference value: 1.363 +/- 0.1297 secs)
[9] = system: Radical scavenging activity; test: Antioxidant activity assessed as inhibition of DPPH radical generation at 800 ug/mL after 20 min by spectrophotometric analysis relative to control

Structure (SMILES) | MIC (Bacillus cereus) | MIC (Staphylococcus aureus) | MIC (Escherichia coli) | MIC (Pseudomonas aeruginosa) | MIC (Candida albicans) | Time (Mus musculus [1]) | Activity (Rattus norvegicus [2]) | Activity (Rattus norvegicus [3]) | inhibition [4] | Time (Mus musculus [5]) | inhibition [6] | Activity (Rattus norvegicus [7]) | Time (Mus musculus [8]) | inhibition [9]
COc1ccc(Br)c(C(=O)N/N=C\c2cccnc2)c1 | 6.25 µg/mL (≈ 18.7 µM) | 6.25 µg/mL (≈ 18.7 µM) | 6.25 µg/mL (≈ 18.7 µM) | 6.25 µg/mL (≈ 18.7 µM) | 3.12 µg/mL (≈ 9.35 µM) |  |  |  |  |  |  |  |  | 
COc1ccc(Br)c(C(=O)N/N=C/C2=C(Cl)c3ccccc3C(c3ccc(Cl)c(Cl)c3)C2)c1 (stereo not given) | 12.5 µg/mL (≈ 22.1 µM) | 12.5 µg/mL (≈ 22.1 µM) | 12.5 µg/mL (≈ 22.1 µM) | 6.25 µg/mL (≈ 11.1 µM) | 6.25 µg/mL (≈ 11.1 µM) |  |  |  |  |  |  |  |  | 
COc1ccc(Br)c(C(=O)N/N=C\c2ccccc2O)c1 | 12.5 µg/mL (≈ 35.8 µM) | 12.5 µg/mL (≈ 35.8 µM) | 6.25 µg/mL (≈ 17.9 µM) | 6.25 µg/mL (≈ 17.9 µM) | 6.25 µg/mL (≈ 17.9 µM) |  |  |  |  |  |  |  |  | 
COc1ccc(Br)c(C(=O)N/N=C\c2ccc(F)cc2)c1 | 6.25 µg/mL (≈ 17.8 µM) | 6.25 µg/mL (≈ 17.8 µM) | 12.5 µg/mL (≈ 35.6 µM) | 6.25 µg/mL (≈ 17.8 µM) | 12.5 µg/mL (≈ 35.6 µM) |  |  |  |  |  |  |  |  | 
COc1ccc(Br)c(C(=O)N/N=C\c2cccc(Cl)c2)c1 | 12.5 µg/mL (≈ 34 µM) | 25 µg/mL (≈ 68 µM) | 12.5 µg/mL (≈ 34 µM) | 6.25 µg/mL (≈ 17 µM) | 6.25 µg/mL (≈ 17 µM) |  |  |  |  |  |  |  |  | 
COc1ccc(Br)c(C(=O)NN2C(=O)CSC2c2ccc([N+](=O)[O-])cc2)c1 (stereo not given) | 6.25 µg/mL (≈ 13.8 µM) | 6.25 µg/mL (≈ 13.8 µM) | 6.25 µg/mL (≈ 13.8 µM) | 12.5 µg/mL (≈ 27.6 µM) | 6.25 µg/mL (≈ 13.8 µM) | 3.263 s | 1.975 mm | 1.45 mm | 5.81% | 2.663 s | inactive | 1.8 mm | 3.375 s | 13%
O=C1O[C@H]([C@@H](O)CO)C(O)=C1O |  |  |  |  |  |  |  |  | 95% |  | 87.6% |  |  | 96%
OC(Cn1cncn1)(Cn1cncn1)c1ccc(F)cc1F [FLUCONAZOLE] |  |  |  |  | 8 µg/mL (≈ 26.1 µM) |  |  |  |  |  |  |  |  | 
COc1ccc(Br)c(C(=O)N/N=C\c2ccc(O)cc2)c1 | 6.25 µg/mL (≈ 17.9 µM) | 12.5 µg/mL (≈ 35.8 µM) | 12.5 µg/mL (≈ 35.8 µM) | 6.25 µg/mL (≈ 17.9 µM) | 3.12 µg/mL (≈ 8.95 µM) |  |  |  |  |  |  |  |  | 
COc1ccc(Br)c(C(=O)NN2C(=O)CSC2C2=C(Cl)c3ccccc3C(c3ccc(Cl)c(Cl)c3)C2)c1 (stereo not given) | 12.5 µg/mL (≈ 19.6 µM) | 6.25 µg/mL (≈ 9.78 µM) | 12.5 µg/mL (≈ 19.6 µM) | 6.25 µg/mL (≈ 9.78 µM) | 6.25 µg/mL (≈ 9.78 µM) | 3.388 s | 2.025 mm | 2.025 mm |  | 2.338 s |  | 2.175 mm | 3.463 s | 
COc1ccc(Br)c(C(=O)NN2C(=O)CSC2c2ccc(F)cc2)c1 (stereo not given) | 6.25 µg/mL (≈ 14.7 µM) | 12.5 µg/mL (≈ 29.4 µM) | 6.25 µg/mL (≈ 14.7 µM) | 12.5 µg/mL (≈ 29.4 µM) | 6.25 µg/mL (≈ 14.7 µM) | 3.421 s | 2.2 mm | 2 mm | 51% | 3.241 s | 37.8% | 2.05 mm | 2.923 s | 57.1%
O=C(O)Cc1ccccc1Nc1c(Cl)cccc1Cl [DICLOFENAC] |  |  |  |  |  |  | 0.625 mm | 0.6 mm |  |  |  | 0.625 mm |  | 
COc1ccc(Br)c(C(=O)NN2C(=O)CSC2c2cccc3cc(OC)ccc23)c1 (stereo not given) | 12.5 µg/mL (≈ 25.6 µM) | 12.5 µg/mL (≈ 25.6 µM) | 6.25 µg/mL (≈ 12.8 µM) | 6.25 µg/mL (≈ 12.8 µM) | 6.25 µg/mL (≈ 12.8 µM) | 2.214 s | 1.98 mm | 1.515 mm | 52.4% | 2.53 s | 38.3% | 1.89 mm | 1.954 s | 58.3%
COc1ccc(Br)c(C(=O)N/N=C\c2ccccc2OC)c1 | 12.5 µg/mL (≈ 34.4 µM) | 6.25 µg/mL (≈ 17.2 µM) | 12.5 µg/mL (≈ 34.4 µM) | 3.12 µg/mL (≈ 8.6 µM) | 6.25 µg/mL (≈ 17.2 µM) |  |  |  |  |  |  |  |  | 
COc1ccc(Br)c(C(=O)N/N=C\c2ccccc2Cl)c1 | 6.25 µg/mL (≈ 17 µM) | 12.5 µg/mL (≈ 34 µM) | 6.25 µg/mL (≈ 17 µM) | 6.25 µg/mL (≈ 17 µM) | 6.25 µg/mL (≈ 17 µM) |  |  |  |  |  |  |  |  | 
COc1ccc(Br)c(C(=O)N/N=C\c2ccc(C)cc2)c1 | 12.5 µg/mL (≈ 36 µM) | 12.5 µg/mL (≈ 36 µM) | 6.25 µg/mL (≈ 18 µM) | 12.5 µg/mL (≈ 36 µM) | 6.25 µg/mL (≈ 18 µM) |  |  |  |  |  |  |  |  | 
